Usually inhibition stands for the change of the read-out against control, counted positive when it falls. For orientation: IC50 means the point on the concentration scale where inhibition reaches its midpoint. As usually defined, the CC50 is the concentration at which the toxic effect on the cells reaches its halfway point. Low readings indicate greater toxicity to the cells, high ones lower toxicity to the cells.

Data set [1] addresses T1, Cholinesterase (Homo sapiens, UniProt P06276). In words: Inhibition of human recombinant BuChE using butyrylthiocholine iodide as substrate at 1 uM preincubated for 5 mins followed by substrate addition and measured after 5 mins by DTNB-reagent based Ellman's method relative to control. The conditions noted are these: time 10.0 min.
For data set [2], the target named is Cholinesterase (Equus caballus, UniProt P81908).
Chain of Cholinesterase (Equus caballus, UniProt P81908) (P81908 whole entry): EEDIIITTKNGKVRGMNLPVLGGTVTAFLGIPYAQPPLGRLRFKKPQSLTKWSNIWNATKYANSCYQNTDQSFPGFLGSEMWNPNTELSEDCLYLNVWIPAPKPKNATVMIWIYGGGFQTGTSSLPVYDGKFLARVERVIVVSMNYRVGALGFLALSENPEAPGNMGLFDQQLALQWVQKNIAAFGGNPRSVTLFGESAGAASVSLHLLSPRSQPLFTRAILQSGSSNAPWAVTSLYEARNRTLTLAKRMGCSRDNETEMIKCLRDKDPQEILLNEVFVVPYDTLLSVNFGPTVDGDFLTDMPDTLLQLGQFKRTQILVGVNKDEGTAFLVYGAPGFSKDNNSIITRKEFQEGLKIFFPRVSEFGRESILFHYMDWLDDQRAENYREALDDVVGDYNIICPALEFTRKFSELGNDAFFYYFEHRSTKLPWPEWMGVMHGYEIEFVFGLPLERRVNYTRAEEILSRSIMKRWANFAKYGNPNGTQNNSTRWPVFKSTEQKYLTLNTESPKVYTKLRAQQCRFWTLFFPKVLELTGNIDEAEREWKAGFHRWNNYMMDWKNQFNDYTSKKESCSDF
Description: Inhibition of horse serum BuChE using butyrylthiocholine iodide as substrate preincubated for 5 mins followed by substrate addition and measured after 5 mins by DTNB-reagent based Ellman's method
Data set [3] has as its target Cholinesterase (Equus caballus) (UniProt P81908). In words: Inhibition of horse serum BuChE using butyrylthiocholine iodide as substrate at 10 uM preincubated for 5 mins followed by substrate addition and measured after 5 mins by DTNB-reagent based Ellman's method relative to control. The class given is cell-free. To be noted: time 10.0 min. A general note: Ellman's reagent forms a yellow product with free thiols.

Data set [4] has as its target T1, Cholinesterase.
Description: Inhibition of human recombinant BuChE using butyrylthiocholine iodide as substrate preincubated for 5 mins followed by substrate addition and measured after 5 mins by DTNB-reagent based Ellman's method
Data set [5] has as its target Cytochrome P450 3A4 (Homo sapiens, UniProt P08684). In words: Inhibition of CYP3A4 (unknown origin) at 10 uM. The data set is classed as ADME.
Data set [6] deals with Cytochrome P450 2D6 (Homo sapiens, UniProt P10635). In words: Inhibition of CYP2D6 (unknown origin) at 10 uM. The class given is ADME.
Chain of Cytochrome P450 2D6 (P10635 whole entry): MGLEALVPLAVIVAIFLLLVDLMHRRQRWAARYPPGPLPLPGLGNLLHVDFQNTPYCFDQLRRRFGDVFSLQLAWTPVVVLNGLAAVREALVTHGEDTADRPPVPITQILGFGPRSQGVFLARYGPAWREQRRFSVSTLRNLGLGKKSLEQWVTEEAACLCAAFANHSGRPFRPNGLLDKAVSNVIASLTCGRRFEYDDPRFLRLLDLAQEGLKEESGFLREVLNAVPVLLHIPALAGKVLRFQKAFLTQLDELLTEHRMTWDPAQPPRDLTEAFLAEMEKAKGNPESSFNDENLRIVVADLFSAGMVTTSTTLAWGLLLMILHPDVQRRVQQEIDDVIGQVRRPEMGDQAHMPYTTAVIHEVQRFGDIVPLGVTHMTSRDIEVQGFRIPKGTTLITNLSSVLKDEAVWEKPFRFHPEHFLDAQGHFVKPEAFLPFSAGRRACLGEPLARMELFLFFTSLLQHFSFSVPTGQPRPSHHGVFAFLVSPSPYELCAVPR
The target of data set [7] is hERG (KCNH2) (Homo sapiens, UniProt Q12809). In words: Inhibition of human ERG at 10 uM relative to control. The data set is classed as toxicity.
The target in data set [8] is ATP-dependent translocase ABCB1 (Homo sapiens, UniProt P08183). In words: Substrate activity at P-gp membranes (unknown origin) at 100 uM incubated for 40 mins by luminescent glo assay relative to control. The data set is classed as ADME, cell membranes, Membrane.
Chain of ATP-dependent translocase ABCB1 (P08183 whole entry): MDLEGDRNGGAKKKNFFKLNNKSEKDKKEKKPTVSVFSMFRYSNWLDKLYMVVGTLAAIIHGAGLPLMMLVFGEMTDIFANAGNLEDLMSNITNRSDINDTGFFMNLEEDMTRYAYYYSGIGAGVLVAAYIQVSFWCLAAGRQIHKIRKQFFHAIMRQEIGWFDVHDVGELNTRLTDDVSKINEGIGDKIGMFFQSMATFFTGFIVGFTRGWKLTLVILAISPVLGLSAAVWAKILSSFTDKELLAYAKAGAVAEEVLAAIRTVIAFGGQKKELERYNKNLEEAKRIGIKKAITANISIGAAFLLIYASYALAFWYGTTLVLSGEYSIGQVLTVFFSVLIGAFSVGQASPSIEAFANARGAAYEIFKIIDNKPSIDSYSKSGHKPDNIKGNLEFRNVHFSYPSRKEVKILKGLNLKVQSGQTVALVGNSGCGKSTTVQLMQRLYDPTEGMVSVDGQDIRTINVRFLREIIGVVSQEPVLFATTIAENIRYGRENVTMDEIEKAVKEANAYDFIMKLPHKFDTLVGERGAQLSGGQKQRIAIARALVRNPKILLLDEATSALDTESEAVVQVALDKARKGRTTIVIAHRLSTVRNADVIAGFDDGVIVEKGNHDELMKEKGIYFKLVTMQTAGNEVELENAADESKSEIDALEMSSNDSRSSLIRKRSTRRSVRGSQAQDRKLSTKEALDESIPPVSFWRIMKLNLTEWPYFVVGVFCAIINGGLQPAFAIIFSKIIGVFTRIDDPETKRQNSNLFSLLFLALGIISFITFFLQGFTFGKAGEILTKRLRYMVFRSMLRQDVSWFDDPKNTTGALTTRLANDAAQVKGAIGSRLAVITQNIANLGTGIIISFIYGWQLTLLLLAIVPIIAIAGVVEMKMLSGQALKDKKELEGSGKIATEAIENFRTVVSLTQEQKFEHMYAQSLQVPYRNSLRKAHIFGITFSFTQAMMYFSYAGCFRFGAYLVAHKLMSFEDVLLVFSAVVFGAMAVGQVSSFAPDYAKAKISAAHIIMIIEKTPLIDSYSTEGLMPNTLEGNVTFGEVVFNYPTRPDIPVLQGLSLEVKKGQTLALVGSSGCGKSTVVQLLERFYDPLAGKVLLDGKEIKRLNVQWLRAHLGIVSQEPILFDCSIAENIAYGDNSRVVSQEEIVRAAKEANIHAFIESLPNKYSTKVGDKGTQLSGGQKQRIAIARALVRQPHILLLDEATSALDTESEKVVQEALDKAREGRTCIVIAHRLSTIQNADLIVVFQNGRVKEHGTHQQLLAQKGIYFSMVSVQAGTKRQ
Data set [9] can be described thus: in vitro. To be noted: human, HepG2 cells.
Description: Hepatotoxicity in human HepG2 cells assessed as reduction in cell viability incubated for 72 hrs by MTS assay
The target in data set [10] is Sodium- and chloride-dependent GABA transporter 1 (Mus musculus, UniProt P31648). In words: Inhibition of mouse GAT1 expressed in HEK293 cells assessed as reduction in [3H]-GABA uptake incubated for 10 mins. The class given is cell-based.
In data set [11] the target is T2, GABA transporter 4 (Mus musculus, UniProt P31650).
T2 sequence (P31650 whole entry): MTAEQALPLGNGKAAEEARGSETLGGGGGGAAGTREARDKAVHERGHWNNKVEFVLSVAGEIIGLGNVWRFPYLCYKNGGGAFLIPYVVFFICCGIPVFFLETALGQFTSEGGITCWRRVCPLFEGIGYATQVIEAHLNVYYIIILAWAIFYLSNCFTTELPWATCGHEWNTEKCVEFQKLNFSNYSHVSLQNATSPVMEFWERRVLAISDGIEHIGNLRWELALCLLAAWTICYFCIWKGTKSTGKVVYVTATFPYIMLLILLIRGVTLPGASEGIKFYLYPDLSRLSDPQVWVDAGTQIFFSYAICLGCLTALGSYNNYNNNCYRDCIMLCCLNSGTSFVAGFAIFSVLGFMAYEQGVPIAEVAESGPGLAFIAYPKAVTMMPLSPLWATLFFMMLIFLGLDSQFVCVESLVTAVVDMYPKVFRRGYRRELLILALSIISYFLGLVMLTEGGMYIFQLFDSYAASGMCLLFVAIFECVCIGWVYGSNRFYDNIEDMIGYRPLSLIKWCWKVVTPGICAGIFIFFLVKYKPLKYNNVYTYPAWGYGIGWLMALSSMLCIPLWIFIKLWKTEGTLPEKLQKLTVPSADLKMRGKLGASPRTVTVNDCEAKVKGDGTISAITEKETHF
In words: Inhibition of mouse GAT4 expressed in HEK293 cells assessed as reduction in [3H]-GABA uptake incubated for 10 mins. The class given is cell-based.

The nature of data set [12]: cells. To be noted: Mus musculus, HEK293.
Description: Inhibition of mouse GAT2 expressed in HEK293 cells assessed as reduction in [3H]-GABA uptake incubated for 10 mins
The nature of data set [13]: cells. To be noted: Mus musculus, HEK293. This is another data set of the same source.
Description: Inhibition of mouse GAT3 expressed in HEK293 cells assessed as reduction in [3H]-GABA uptake incubated for 10 mins
A short description of data set [14]: Metabolic stability in human liver microsomes assessed as parent compound remaining incubated for 120 mins in presence of NADPH regeneration system by UPLC/MS analysis. The class given is ADME, Microsome. To be noted: read-out: Stability. Background: Liver microsomes are a subcellular fraction often used to study metabolism.
Data set [15] is described as follows: Drug metabolism in human liver microsomes assessed as N-dealkylation mediated metabolite formation. The class given is ADME, Microsome.
The nature of data set [16]: Drug metabolism in human liver microsomes assessed as hydroxylation mediated metabolite formation. The class given is ADME, Microsome.
Data set [17] is described as follows: Drug metabolism in human liver microsomes assessed as oxidation mediated metabolite formation. The class given is ADME, Microsome.
Data set [18] in a line: Toxicity in Albino Swiss CD-1 mouse model of scopolamine induced memory deficit assessed as sedation at 30 mg/kg, ip pretreated for 30 mins followed by scopolamine administration and measured after 30 mins. The class given is organism-based. The conditions noted are these: in vivo, 1 h, time 60 min.
A short description of data set [19]: Toxicity in Albino Swiss CD-1 mouse model of scopolamine induced memory deficit assessed as motor deficit at 30 mg/kg, ip pretreated for 30 mins followed by scopolamine administration and measured after 30 mins. The conditions noted are these: in vivo, 1 h, time 60 min. The data set is classed as organism-based.

Each structure is given as a SMILES string.

Chain of Cholinesterase (Equus caballus) (P81908 whole entry): as the sequence (P81908 whole entry) above
T1 sequence (P06276 whole entry): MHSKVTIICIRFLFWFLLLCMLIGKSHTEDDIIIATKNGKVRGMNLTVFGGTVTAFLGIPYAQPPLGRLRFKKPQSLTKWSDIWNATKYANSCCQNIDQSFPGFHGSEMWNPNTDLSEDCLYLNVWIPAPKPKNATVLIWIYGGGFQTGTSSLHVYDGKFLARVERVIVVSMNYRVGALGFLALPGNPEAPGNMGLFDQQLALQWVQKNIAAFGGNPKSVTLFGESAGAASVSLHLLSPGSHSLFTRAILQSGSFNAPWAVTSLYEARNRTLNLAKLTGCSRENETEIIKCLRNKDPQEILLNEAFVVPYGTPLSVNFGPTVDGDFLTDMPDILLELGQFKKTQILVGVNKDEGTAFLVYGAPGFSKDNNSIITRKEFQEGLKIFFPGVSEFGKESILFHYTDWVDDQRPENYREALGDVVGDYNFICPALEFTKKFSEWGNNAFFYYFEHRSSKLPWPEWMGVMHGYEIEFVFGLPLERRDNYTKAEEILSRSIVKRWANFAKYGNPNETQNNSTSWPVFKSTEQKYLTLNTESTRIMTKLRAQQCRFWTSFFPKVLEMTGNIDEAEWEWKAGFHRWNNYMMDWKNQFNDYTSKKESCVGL
Chain of Cytochrome P450 3A4 (P08684 whole entry): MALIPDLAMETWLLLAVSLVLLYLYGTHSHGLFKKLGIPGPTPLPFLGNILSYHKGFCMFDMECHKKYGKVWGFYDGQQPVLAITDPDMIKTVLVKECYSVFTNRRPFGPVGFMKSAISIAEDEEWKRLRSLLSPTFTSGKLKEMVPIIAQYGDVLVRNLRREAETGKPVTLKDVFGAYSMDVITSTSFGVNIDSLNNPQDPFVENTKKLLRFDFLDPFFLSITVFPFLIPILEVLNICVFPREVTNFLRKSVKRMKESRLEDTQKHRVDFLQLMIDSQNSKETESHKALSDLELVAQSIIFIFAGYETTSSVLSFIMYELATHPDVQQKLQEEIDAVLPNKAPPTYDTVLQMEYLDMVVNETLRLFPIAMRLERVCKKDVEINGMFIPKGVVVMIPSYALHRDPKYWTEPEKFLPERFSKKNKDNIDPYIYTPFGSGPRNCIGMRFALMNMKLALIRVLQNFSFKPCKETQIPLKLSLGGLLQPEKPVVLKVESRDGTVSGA

For the compound `C[C@H](NCC(O)CNC(=O)CC(c1ccccc1)c1ccccc1)c1ccccc1` (mixture of isomers), the inhibition in data set [1] was determined as 34%. Also, in data set [2], it took 4.77 µM to reach half-maximal inhibition (IC50).
Regarding `CC(C)(NCC(O)CNC(=O)C(c1ccccc1)c1ccccc1)c1ccccc1` (racemic), the inhibition in [3] was 42%; in data set [1], less than 20%.
For the compound `O=C(CC(c1ccccc1)c1ccccc1)NCC(O)CNCc1cccc(C(F)(F)F)c1` (racemic), the IC50 in data set [2] turned out to be 1.73 µM; in data set [4] it was 0.41 µM.
The matching figures for `CC(C)c1cccc(CNCC(O)CNC(=O)CC(c2ccccc2)c2ccccc2)c1` (racemic): 0.63 µM and 0.26 µM.
The matching figures for `CC(C)(C)c1ccc(CNCC(O)CNC(=O)C(c2ccccc2)c2ccccc2)cc1` (racemic): 1.12 µM and 0.3 µM.
Consider `O=C(CC(c1ccccc1)c1ccccc1)NC[C@@H](O)CNCC1CCCCC1`, for which the “inhibition (INH)” value in data set [5] and in data set [6] was “Active” each time. In data set [7], this compound came in with an inhibition at 10 µM of less than 50%. The Activity entry in [8] was “<= 190%”. Further, in [9], the CC50 at 72 h came out at 3.21 µM.
For `O=C(NCC(O)CNCc1ccccc1)C(c1ccccc1)c1ccccc1` (racemic), the inhibition in [1] is less than 20%. The IC50 in data set [10] is greater than 10 µM; in data set [11], greater than 10 µM; in data set [2], 2.54 µM; in data set [12], greater than 10 µM; in data set [13] it was greater than 10 µM.
For `O=C(NCC(O)CNCC1CCCCC1)C(c1ccccc1)c1ccccc1` (stereo not drawn), in data set [14], the remaining at 2 h was greater than 80%. Further, the Drug metabolism result in data set [15] is recorded as “Metabolite_Detected”. In addition, the “inhibition (INH)” value in [5] and in [6] was “Active” throughout.
Turning to `O=C(NCC(O)CNCc1cccc(C(F)(F)F)c1)C(c1ccccc1)c1ccccc1` (racemic), the results for the IC50 in data set [2] and in data set [4] were 0.96 µM and 0.7 µM, respectively.
In the case of `O=C(CC(c1ccccc1)c1ccccc1)NCC(O)CNCc1ccccc1` (racemic), in [14], the remaining at 2 h came out at 66%. Further, the Drug metabolism result in data set [15], in data set [16] and in [17] was “Metabolite_Detected” throughout. Moreover, the “inhibition (INH)” value in [5] and in [6] was “Active” in each case. The IC50 turned out to be 0.61 µM in [2] and 0.28 µM in data set [4].
Take `O=C(CC(c1ccccc1)c1ccccc1)NC[C@H](O)CNCC1CCCCC1`: the “inhibition (INH)” value in data set [5] and in [6] was “Active” throughout. Moreover, in data set [7], the inhibition at 10 µM is less than 50%. The Activity entry in data set [8] is given as “<= 190%”; in [18] it was “Toxic”; in data set [19], “Toxic”. This compound had a half-maximal cytotoxic concentration (CC50) at 72 h in [9] of 2.85 µM.
For the compound `CC(C)(C)c1cccc(CNCC(O)CNC(=O)CC(c2ccccc2)c2ccccc2)c1` (racemic), the half-inhibitory concentration (IC50) in data set [10] is greater than 10 µM; in [11] it was greater than 10 µM; in data set [2], 0.32 µM; in data set [4], 0.18 µM; in data set [12], greater than 10 µM; in data set [13], greater than 10 µM.
With `CC(C)(C)c1cccc(CNCC(O)CNC(=O)C(c2ccccc2)c2ccccc2)c1` (racemic), the concentration for half-maximal inhibition (IC50) in data set [10] is greater than 10 µM; in [11], greater than 10 µM; in [2], 0.26 µM; in data set [4] it was 0.1 µM; in [12] it was greater than 10 µM; in data set [13], greater than 10 µM.
With `CC(C)(C)c1ccc(CNCC(O)CNC(=O)CC(c2ccccc2)c2ccccc2)cc1` (racemic), the IC50 in data set [2] came out at 1.94 µM; in data set [4], 0.16 µM.
As to `O=C(CC(c1ccccc1)c1ccccc1)NCC(O)CNCC1CC1` (racemic), the inhibition in data set [1] was found to be 46%. Also, the IC50 in data set [10] is greater than 10 µM; in [11], greater than 10 µM; in data set [2], 3.58 µM; in [12], greater than 10 µM; in data set [13], greater than 10 µM.
Take `O=C(NC[C@@H](O)CNCC1CCCCC1)C(c1ccccc1)c1ccccc1`: the “inhibition (INH)” value in [5] and in data set [6] was “Active” in each case. In data set [9], this compound displayed a CC50 at 72 h of 25.8 µM.
In the case of `O=C(NCC(O)CNCC1CC1)C(c1ccccc1)c1ccccc1` (racemic), the inhibition in [3] is 47%; in data set [1], less than 20%.
Take `COc1cccc(CNCC(O)CNC(=O)C(c2ccccc2)c2ccccc2)c1` (racemic): in data set [1], the inhibition was found to be 70%. Moreover, the 50% inhibitory concentration (IC50) in data set [2] came to 2.18 µM.
Consider `O=C(NC[C@H](O)CNCC1CCCCC1)C(c1ccccc1)c1ccccc1`, for which the “inhibition (INH)” value in data set [5] and in [6] was “Active” in each case. The same compound displayed a CC50 at 72 h in data set [9] of 18.7 µM.
Consider `COc1cccc(CNCC(O)CNC(=O)CC(c2ccccc2)c2ccccc2)c1` (racemic), for which the figures for the 50% inhibitory concentration (IC50) in data set [2] and in data set [4] were 0.66 µM and 0.25 µM, respectively.
Consider `CC(C)(NCC(O)CNC(=O)CC(c1ccccc1)c1ccccc1)c1ccccc1` (racemic), for which the inhibition in [3] was 44%; in data set [1], less than 20%.
As for `C[C@H](NCC(O)CNC(=O)C(c1ccccc1)c1ccccc1)c1ccccc1` (mixture of isomers), in [1], the inhibition is less than 20%. In [2], the concentration for half-maximal inhibition (IC50) was determined as 4.54 µM.
